The text below walks through data of PMC3575809 (Nucleic Acids Research, 2012).

A word on the IC50: it is the concentration that inhibits the measured activity by half. High values mean weaker potency in that assay, low ones greater potency in that assay. By Ki is commonly meant the dissociation constant of the complex between target and ligand, obtained from inhibition or displacement. High values mean weaker binding, low ones tighter binding. One may read the Hill coefficient as the slope factor of the fitted curve. One may read the Kd as the free concentration of one partner at which half of the binding sites on the other are occupied at equilibrium, for simple one-to-one binding.

Series [1] has as its target T1, Mtb DnaG (Mycobacterium tuberculosis, UniProt P9WNW1).
T1 sequence (P9WNW1 1-639): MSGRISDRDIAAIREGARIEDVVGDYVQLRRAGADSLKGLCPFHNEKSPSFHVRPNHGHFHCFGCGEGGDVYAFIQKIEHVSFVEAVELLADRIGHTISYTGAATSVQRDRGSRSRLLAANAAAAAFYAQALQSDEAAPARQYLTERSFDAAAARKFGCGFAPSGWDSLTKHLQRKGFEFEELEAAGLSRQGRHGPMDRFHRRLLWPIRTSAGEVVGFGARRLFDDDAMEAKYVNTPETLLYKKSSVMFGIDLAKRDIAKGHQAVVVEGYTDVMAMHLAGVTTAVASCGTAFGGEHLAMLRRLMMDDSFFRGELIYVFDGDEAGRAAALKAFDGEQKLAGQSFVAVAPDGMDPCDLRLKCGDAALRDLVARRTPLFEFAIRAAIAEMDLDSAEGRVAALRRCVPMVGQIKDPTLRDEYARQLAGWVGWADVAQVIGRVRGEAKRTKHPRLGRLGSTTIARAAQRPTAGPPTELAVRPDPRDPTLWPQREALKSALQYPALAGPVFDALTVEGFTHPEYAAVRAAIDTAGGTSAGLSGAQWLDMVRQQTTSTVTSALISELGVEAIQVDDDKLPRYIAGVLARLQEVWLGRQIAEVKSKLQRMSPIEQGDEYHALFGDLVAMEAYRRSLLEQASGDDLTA
In kind it is biochemical. The following applies: for signal change in HTS: 13 µM compound, not enzyme activation but phosphate from the compound.

The target of series [2] is T1, Mtb DnaG. Kind of series: Dose–response coupled primase–pyrophosphatase assay. The following applies: for Hill coefficient: dose–response fit, 1.25 µM DNA, 110 µM NTP, 0.5 µM Mtb DnaG.
For the next series, the system named is human DNA polymerase α. The following applies: cited from earlier work.
The target in series [3] is T1, Mtb DnaG. Kind of series: Mode of inhibition assays. It counts as biochemical. The settings on record: for mode of inhibition: Lineweaver–Burk plots, varied NTP and DNA; for n, number of inhibitor molecules bound: alternative model with high cooperativity; for n, number of binding sites on Mtb DnaG: global fit, non-cooperative model.
The target in series [4] is T1, Mtb DnaG. It counts as biochemical. The settings on record: 10 µM inhibitor (Figure 3); gel, Figures 3 and 9.
In the next series the test system is human primase. The settings on record: cited from earlier work.
A further series concerns the target T2, Mtb DnaG (DNA primase) (Mycobacterium tuberculosis H37Rv, UniProt P9WNW1 1-639).
T2 sequence: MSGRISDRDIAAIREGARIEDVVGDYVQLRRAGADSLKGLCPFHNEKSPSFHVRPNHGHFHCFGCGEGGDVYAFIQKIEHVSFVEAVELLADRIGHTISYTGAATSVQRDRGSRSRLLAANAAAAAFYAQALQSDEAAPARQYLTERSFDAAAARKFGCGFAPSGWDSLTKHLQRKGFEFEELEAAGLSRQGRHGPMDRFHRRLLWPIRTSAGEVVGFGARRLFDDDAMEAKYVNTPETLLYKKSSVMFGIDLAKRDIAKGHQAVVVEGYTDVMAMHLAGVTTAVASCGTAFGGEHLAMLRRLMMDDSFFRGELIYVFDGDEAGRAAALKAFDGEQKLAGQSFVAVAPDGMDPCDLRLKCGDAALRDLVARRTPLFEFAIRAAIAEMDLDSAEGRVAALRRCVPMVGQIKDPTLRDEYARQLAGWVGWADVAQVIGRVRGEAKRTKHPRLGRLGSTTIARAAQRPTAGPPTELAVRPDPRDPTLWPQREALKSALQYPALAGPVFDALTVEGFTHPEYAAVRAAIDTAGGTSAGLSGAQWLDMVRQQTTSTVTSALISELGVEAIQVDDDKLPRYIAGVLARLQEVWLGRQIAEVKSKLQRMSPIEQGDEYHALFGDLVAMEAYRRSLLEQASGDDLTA
Kind of series: fluorescence anisotropy.

With `O=C(O)CN(CCN(CC(=O)O)CC(=O)O)CC(=O)O` [EDTA, ethylenediaminetetraacetic acid], on Mtb DnaG [1], the “inhibition by positive control in HTS” value was “full inhibition”.
In turn, `O=c1oc2c(O)c(O)cc3c(=O)oc4c(O)c(O)cc1c4c23` [ellagic acid] came in with a 50% inhibitory concentration (IC50) against Mtb DnaG [2] of 22 ± 3 µM.
Take `Cc1ccc(C(=O)Nc2ccc(S(=O)(=O)O)c3cc(S(=O)(=O)O)cc(S(=O)(=O)O)c23)cc1NC(=O)c1cccc(NC(=O)Nc2cccc(C(=O)Nc3cc(C(=O)Nc4ccc(S(=O)(=O)O)c5cc(S(=O)(=O)O)cc(S(=O)(=O)O)c45)ccc3C)c2)c1` [suramin]: the mode of inhibition result in the series with human DNA polymerase α is “DNA- and NTP-competitive inhibitor of human DNA polymerase α and primase, respectively”. At Mtb DnaG [3], the Ki was 3.2 ± 0.5 µM; the mode of inhibition entry was “competitive inhibitors with respect to both NTP and DNA”; the “n, number of inhibitor molecules bound” value is given as 3; the “n, number of binding sites on Mtb DnaG” value is recorded as 4. The “effect on synthesis of radioactively labelled RNA products” value on Mtb DnaG [4] is on record as “potent Mtb DnaG inhibitors”. Moreover, the mode of inhibition result in the series with human primase was “DNA- and NTP-competitive inhibitor of human DNA polymerase α and primase, respectively”. In addition, on Mtb DnaG [2], half-maximal inhibition (IC50) was put at 6.3 ± 0.2 µM and the Hill coefficient was 2.9 ± 0.1.
Turning to `COc1cccc2c1C(=O)c1c(O)c3c(c(O)c1C2=O)C[C@@](O)(C(=O)CO)C[C@@H]3O[C@H]1C[C@H](N)[C@H](O)[C@H](C)O1` [doxorubicin], on Mtb DnaG [3], affinity was put at a Ki of 2.5 ± 0.5 µM; the mode of inhibition result was “competitive inhibitors with respect to both NTP and DNA”; the “n, number of inhibitor molecules bound” value was 2; the “n, number of binding sites on Mtb DnaG” value was found to be 3. The “effect on synthesis of radioactively labelled RNA products” value at Mtb DnaG [4] was “potent Mtb DnaG inhibitors”. Further, on Mtb DnaG [2], the IC50 turned out to be 7.7 ± 0.5 µM and the Hill coefficient was 2.0 ± 0.2.
`O=C(O)c1ccccc1OP(=O)(O)O` [fosfosal]: the “signal change in HTS” value at Mtb DnaG [1] is on record as “increase in absorbance”.
As to `CO[C@H]1C[C@H](O[C@H]2[C@H](C)[C@@H](O[C@@H]3O[C@H](C)C[C@H](N(C)C)[C@H]3O)[C@@H](C)C[C@@]3(CO3)C(=O)[C@H](C)[C@@H](O)[C@@H](C)[C@@H](C)OC(=O)[C@@H]2C)O[C@@H](C)[C@@H]1O` [oleandomycin phosphate], on Mtb DnaG [1], the “signal change in HTS” value is given as “increase in absorbance”.
Still for that read-out and setting: under `CC(C)N(CCC(C(N)=O)(c1ccccc1)c1ccccn1)C(C)C` (stereo not shown) [disopyramide phosphate] stands “increase in absorbance”.

B1: 28-mer ssDNA (ssDNA)
DNA: CCGAATCAGTCCGACGACGCATCAGCAC
For B1, binding with Mtb DnaG (DNA primase) was characterised by a dissociation constant (Kd) of 0.036 ± 0.016 µM.
